Test results: US4707481A, “Pyridazinones, their preparation and use, and bronchospasmolytic medicaments containing pyridazinones” (BYK Gulden Lomberg Chemische Fabrik GmbH, priority 1983, dated 1987)
Where two headings read alike, the source gives them in different places.

How the values were obtained:
[1] = tested on: electrically stimulated left atrium of rats; experiment: positive inotropic action on electrically stimulated left atrium in vitro; set-up: species or system rat; conditions: for EC40: Rattus norvegicus, Column B, negative logarithm of EC40pot in mol/l, 40% increase in contraction force, read-out: -lg[EC40 pot.] left atrium (converted)
[2] = tested on: acetylcholine-induced bronchospasm; experiment: protective effect against acetylcholine-induced bronchospasm in conscious guinea pigs; format: in vivo, guinea pig; conditions: for Doubling of the latency period / Tripling of the latency period: 100 μmol/kg p.o.; for Tripling of the latency period: figure in parentheses
Method: The figure in parentheses indicates the number out of 10 animals in which the latency period more than tripled.
The latency period is to be understood to be the time from the start of acetylcholine-atomization until clear signs of asthma appeared.
The time from the start of atomization to the onset of clear respiratory exertion (in certain circumstances, hypoxic convulsion in the lateral position) is measured, and is denoted the latency period.
The test substance is administered orally by gavage (standard dose 100 μmol/kg, volume 1 ml of 4% strength methocel suspension in 0.9% strength sodium chloride solution/kg). […] Prolongation of the latency period to at least twice its length is regarded as a protective effect.

[3] = tested on: histamine-induced bronchospasm; experiment: inhibition of histamine-induced bronchospasm in anesthetized guinea pigs; format: in vivo, guinea pig
Method: A method for simultaneously recording pharmacodynamic and toxic effects on internal sensitive receptors, on the respiration and the cardiovascular system of guinea pigs was used [U. Kilian, E. Muller, E. Ch. […] To characterize the bronchospasm induced by histamine (0.09-0.18 μmol /kg i.v.), the maximum flow rate of the respiratory air during inspiration (Vmaxi) and expiration (Vmaxe) and the breath volume (BVi) were measured. A histamine spasm before administration of the substance was compared with several histamine spasms after administration of the substance. The test substances were administered intravenously (i.v.) and/or intrajejunally (i.j.). 5 to 10 animals were used per measurement, and the arithmetic mean was calculated from the results.

[4] = tested on: chain of tracheal rings of guinea pigs; experiment: relaxing action on chain of tracheal rings in vitro (bronchospasmolytic action); set-up: species or system guinea pig; conditions: for EC50: Cavia porcellus, Column A, negative logarithm of EC50 in mol/l, 50% of maximum relaxation by (-)isoprenaline, read-out: -lg[EC50] trachea (converted)
Method: The relaxing action of the 6-aryl-3[2H]pyridazinones I has been tested in vitro on a chain of tracheal rings (Tr.) of guinea pigs. […] The quotient of [EC40pot. ]left atrium and [ED50 ]trachea serves as a measure of the organ-selective activity.
The bronchospasmolytic action of the compounds on the chain of tracheal rings of the guinea pig was tested in vitro:
Four parallel chains of tracheal rings, each consisting of 6 individual rings, of guinea pigs(.male. and .female., 430-600 g) in an organ bath [5 ml, Krebs-Henseleit solution with added phentolamine (10^-5 mol/l), 37° C., initial tension of the organs 2 g, gassing with carbogen] develop a stable, spontaneous tonic contraction after about 20 to 30 minutes. […] Over a period of 20 to 30 minutes, a complete dose/action curve of the test substance is thus obtained. The particular relaxation is expressed as a percentage fraction of the maximum relaxation which can be achieved by administration of (-)isoprenaline (10^-6 mol/1). The concentration of the test substance which causes 50% of the maximum relaxation which can be achieved, expressed by the negative logarithm of the EC50 mol/l: -lg[EC50 ]is a measure of the bronchodilator activity.

[5] = tested on: right ventricle of guinea pigs; experiment: heart function dP/dtmax, right ventricle of anesthetized guinea pigs; format: in vivo, guinea pig
Method: The effect of the substances on the contractility of the heart of guinea pigs is tested on animals (.male., 400 to 1000 g) under urethane anesthesia. The change in pressure in the right ventricle of the heart is measured with a tip catheter introduced through the right jugular vein and the maximum rate of pressure rise (dP/dtmax) is determined from this. The heart rate is derived from the pressure waves. […] The test substances were administered intravenously. 5-7 animals were used for each measurement, and the arithmetic mean was calculated from the results.

[6] = tested on: guinea pig hearts isolated and perfused by the Langendorff method; experiment: left-ventricular pressure and heart rate in isolated perfused Langendorff hearts; conditions: for Emax: Cavia porcellus
Description: After the animals have been sacrificed by a blow to the neck and exsanguination through the carotid arteries, the thoracic cavity is opened, and the aorta is exposed and looped up with a thread. A cannula, which is attached by tubing to the apparatus from which the nutrient solution slowly drops, is introduced in the direction of the heart and the heart is, quickly after removal from the thorax, connected to the perfusion apparatus. A balloon probe, connected to a Statham pressure sensor, is advanced through a cut through the left atrium into the left ventricle, and is provided with an initial pressure of 40 mm Hg. […] The nutrient solution flowing freely from the coronary sinus into the right atrium is measured with a flow […]) and, together with the change in the left-ventricular pressure and the heart rate determined from this, is recorded on a Watanabe recorder. The substances are administered in a volume of 0.1 ml of nutrient solution, in the dosage indicated in Tab.

[7] = toxicity studies, mouse p.o.; conditions: in vivo, po; Column F; mouse p.o.; 7 days observation; read-out: Approximate LD50
Method: The toxicity studies are carried out on female NMRI mice (body weight 23-30 g). The animals (5 animals per dose) receive food and water ad libitum. Various doses of the substances are administered once as a suspension in methocel via a gavage. The period of observation lasts 7 days. The tolerated dose (TD), that is to say the highest dose at which as yet none of the animals die, is determined by observation. The average lethal dose (LD50), that is to say the dose at which 50% of the animals die, is determined from the dose/action curve by means of linear regression.

For COc1cc(-c2ccc(=O)[nH]n2)ccc1OCC(C)C [Serial No. 16, 6-(3-methoxy-4-isobutoxyphenyl)-3[2H]pyridazinone], the “[EC40 pot.] theophylline / [EC40 pot.] substance” value ([1]; Column E, left atrium) was 251, the EC40 [1] was 1660 nM and the “Doubling of the latency period” value ([2]; 30 min) was 8 N of 10 animals. For the same compound, the “Tripling of the latency period” value ([2]; 30 min) was 5 N of 10 animals, the “protective effect compared with theophylline” value ([2]; result in words) was “greater protective effect” and the “inhibition of histamine-induced bronchospasm, TVi” value (“inhibition … TVi” for short) ([3]; 20 μmol/kg i.v., 2 min) was 153%. The “inhibition of histamine-induced bronchospasm, Vmaxe” value (“inhibition … Vmaxe” for short) ([3]; 20 μmol/kg i.v., 2 min) was 145%, the “inhibition of histamine-induced bronchospasm, Vmaxi” value (shortened to “inhibition … Vmaxi”) ([3]; 20 μmol/kg i.v., 2 min) was 154% and the “inhibition … TVi” value ([3]; 20 μmol/kg i.v., 10 min) was 66%. For the same compound, the “inhibition … Vmaxe” value ([3]; 20 μmol/kg i.v., 10 min) was 63%, the “inhibition … Vmaxi” value ([3]; 20 μmol/kg i.v., 10 min) was 73% and the “inhibition … TVi” value ([3]; 20 μmol/kg i.v., 20 min) was 46%. For the same compound, the “inhibition … Vmaxe” value ([3]; 20 μmol/kg i.v., 20 min) was 60%, the “inhibition … Vmaxi” value ([3]; 20 μmol/kg i.v., 20 min) was 48% and the “inhibition … TVi” value ([3]; 20 μmol/kg i.v., 30 min) was 28%. The “inhibition … Vmaxe” value ([3]; 20 μmol/kg i.v., 30 min) was 33%, the “inhibition … Vmaxi” value ([3]; 20 μmol/kg i.v., 30 min) was 34% and the “inhibition … TVi” value ([3]; 20 μmol/kg i.v., 60 min) was 13%. For the same compound, the “inhibition … Vmaxe” value ([3]; 20 μmol/kg i.v., 60 min) was 16%, the “inhibition … Vmaxi” value ([3]; 20 μmol/kg i.v., 60 min) was 15% and the “inhibition of histamine-induced bronchospasm compared with theophylline” value ([3]; result in words) was “significantly more effective than theophylline”. For the same compound, the EC50 [4] was 288 nM, the “[EC40 pot.] left atrium / [EC50] trachea” value ([4]; Column C, measure of organ-selective activity) was 5.8 and the “[EC50] theophylline / [EC50] substance” value ([4]; Column D, trachea) was 468.

With Cn1c(=O)c2[nH]cnc2n(C)c1=O [Theophylline, theophylline, reference compound] the EC40 [1] was 417000 nM, the “Doubling of the latency period” value ([2]; 30 min) was 6 N of 10 animals and the “Tripling of the latency period” value ([2]; 30 min) was 4 N of 10 animals. For the same compound, the “Doubling of the latency period” value ([2]; 45 min after administration) was 3 N of 10 animals, the “Tripling of the latency period” value ([2]; 45 min after administration) was 2 N of 10 animals and the “inhibition … TVi” value ([3]; 20 μmol/kg i.v., 2 min) was 45%. For the same compound, the “inhibition … Vmaxe” value ([3]; 20 μmol/kg i.v., 2 min) was 51%, the “inhibition … Vmaxi” value ([3]; 20 μmol/kg i.v., 2 min) was 49% and the “inhibition … TVi” value ([3]; 20 μmol/kg i.v., 10 min) was 5%. The “inhibition … Vmaxe” value ([3]; 20 μmol/kg i.v., 10 min) was 10%, the “inhibition … Vmaxi” value ([3]; 20 μmol/kg i.v., 10 min) was 11% and the “inhibition … TVi” value ([3]; 20 μmol/kg i.v., 20 min) was 5%. The “inhibition … Vmaxe” value ([3]; 20 μmol/kg i.v., 20 min) was 9%, the “inhibition … Vmaxi” value ([3]; 20 μmol/kg i.v., 20 min) was 8% and the “inhibition … TVi” value ([3]; 20 μmol/kg i.v., 30 min) was 10%. For the same compound, the “inhibition … Vmaxe” value ([3]; 20 μmol/kg i.v., 30 min) was 13%, the “inhibition … Vmaxi” value ([3]; 20 μmol/kg i.v., 30 min) was 8% and the “inhibition … TVi” value ([3]; 60 μmol/kg i.j., 2 min) was 7%. The “inhibition … Vmaxe” value ([3]; 60 μmol/kg i.j., 2 min) was 8%, the “inhibition … Vmaxi” value ([3]; 60 μmol/kg i.j., 2 min) was 6% and the “inhibition … TVi” value ([3]; 60 μmol/kg i.j., 10 min) was 35%. For the same compound, the “inhibition … Vmaxe” value ([3]; 60 μmol/kg i.j., 10 min) was 33%, the “inhibition … Vmaxi” value ([3]; 60 μmol/kg i.j., 10 min) was 42% and the “inhibition … TVi” value ([3]; 60 μmol/kg i.j., 20 min) was 41%. The “inhibition … Vmaxe” value ([3]; 60 μmol/kg i.j., 20 min) was 41%, the “inhibition … Vmaxi” value ([3]; 60 μmol/kg i.j., 20 min) was 46% and the “inhibition … TVi” value ([3]; 60 μmol/kg i.j., 30 min) was 37%. The “inhibition … Vmaxe” value ([3]; 60 μmol/kg i.j., 30 min) was 40%, the “inhibition … Vmaxi” value ([3]; 60 μmol/kg i.j., 30 min) was 45% and the “inhibition … TVi” value ([3]; 60 μmol/kg i.j., 45 min) was 33%. For the same compound, the “inhibition … Vmaxe” value ([3]; 60 μmol/kg i.j., 45 min) was 33%, the “inhibition … Vmaxi” value ([3]; 60 μmol/kg i.j., 45 min) was 39% and the “inhibition … TVi” value ([3]; 60 μmol/kg i.j., 60 min) was 37%. The “inhibition … Vmaxe” value ([3]; 60 μmol/kg i.j., 60 min) was 32%, the “inhibition … Vmaxi” value ([3]; 60 μmol/kg i.j., 60 min) was 39% and the “inhibition … TVi” value ([3]; 60 μmol/kg i.v., 2 min) was 78%. For the same compound, the “inhibition … Vmaxe” value ([3]; 60 μmol/kg i.v., 2 min) was 79%, the “inhibition … Vmaxi” value ([3]; 60 μmol/kg i.v., 2 min) was 95% and the “inhibition … TVi” value ([3]; 60 μmol/kg i.v., 10 min) was 27%. The “inhibition … Vmaxe” value ([3]; 60 μmol/kg i.v., 10 min) was 27%, the “inhibition … Vmaxi” value ([3]; 60 μmol/kg i.v., 10 min) was 38% and the “inhibition … TVi” value ([3]; 60 μmol/kg i.v., 20 min) was 16%. The “inhibition … Vmaxe” value ([3]; 60 μmol/kg i.v., 20 min) was 15%, the “inhibition … Vmaxi” value ([3]; 60 μmol/kg i.v., 20 min) was 19% and the “inhibition … TVi” value ([3]; 60 μmol/kg i.v., 30 min) was 16%. For the same compound, the “inhibition … Vmaxe” value ([3]; 60 μmol/kg i.v., 30 min) was 15%, the “inhibition … Vmaxi” value ([3]; 60 μmol/kg i.v., 30 min) was 18% and the “inhibition … TVi” value ([3]; 60 μmol/kg i.v., 60 min) was 3%. The “inhibition … Vmaxe” value ([3]; 60 μmol/kg i.v., 60 min) was 8%, the “inhibition … Vmaxi” value ([3]; 60 μmol/kg i.v., 60 min) was 7% and the “Percentage change in dP/dtmax” value ([5]; 10 μmol/kg i.v., 0-10 min (Maximum)) was 59%. For the same compound, the “Percentage change in dP/dtmax” value ([5]; 10 μmol/kg i.v., 10 min) was 12%, the “Percentage change in dP/dtmax” value ([5]; 10 μmol/kg i.v., 30 min) was 20% and the “Percentage change in dP/dtmax” value ([5]; 30 μmol/kg i.v., 0-10 min (Maximum)) was 92%. The “Percentage change in dP/dtmax” value ([5]; 30 μmol/kg i.v., 10 min) was 53%, the “Percentage change in dP/dtmax” value ([5]; 30 μmol/kg i.v., 30 min) was 67% and the “Percentage change in dP/dtmax” value ([5]; 100 μmol/kg i.v., 0-10 min (Maximum)) was 147%. The “Percentage change in dP/dtmax” value ([5]; 100 μmol/kg i.v., 10 min) was 135%, the “Percentage change in dP/dtmax” value ([5]; 100 μmol/kg i.v., 30 min) was 112% and the Emax ([6]; after 3000 nMol, read-out: Emax left-ventricular pressure) was 16%. For the same compound, the Emax ([6]; at Emax, 3000 nMol, read-out: Percentage increase in heart rate at Emax) was 5% and the EC20 left-ventricular pressure ([6]; dose which leads to a 20% increase in left ventricular pressure) was “is not reached”.

Work on COc1cc(-c2ccc(=O)[nH]n2)ccc1OC(C)C [compound 1] yielded an EC40 [1] of 22400 nM, an EC50 [4] of 1910 nM and an LD50 at 168 h [7] of 270 mg/kg.
